Test results: BindingDB's records for patent US20250313563 (The Broad Institute, 2025)
Where “and” joins values, the source holds several entries; their conditions need not be identical. Equal values may be shown once.

How the values were obtained:
[1] = target: Glycogen synthase kinase-3 alpha (Homo sapiens, UniProt P49840); assay: TR-FRET Assay
Outline: (§1)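 30 min preinc w/ cpd in assay buffer → kinase rxn → EDTA quench → add detection mix (40 nM SA-d2, 2 nM Tb-pSer641 Ab) → TR-FRET read.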

[2] = target: Glycogen synthase kinase-3 beta (Homo sapiens, UniProt P49841); assay: TR-FRET Assay
Sequence of Glycogen synthase kinase-3 beta (P49841 whole entry): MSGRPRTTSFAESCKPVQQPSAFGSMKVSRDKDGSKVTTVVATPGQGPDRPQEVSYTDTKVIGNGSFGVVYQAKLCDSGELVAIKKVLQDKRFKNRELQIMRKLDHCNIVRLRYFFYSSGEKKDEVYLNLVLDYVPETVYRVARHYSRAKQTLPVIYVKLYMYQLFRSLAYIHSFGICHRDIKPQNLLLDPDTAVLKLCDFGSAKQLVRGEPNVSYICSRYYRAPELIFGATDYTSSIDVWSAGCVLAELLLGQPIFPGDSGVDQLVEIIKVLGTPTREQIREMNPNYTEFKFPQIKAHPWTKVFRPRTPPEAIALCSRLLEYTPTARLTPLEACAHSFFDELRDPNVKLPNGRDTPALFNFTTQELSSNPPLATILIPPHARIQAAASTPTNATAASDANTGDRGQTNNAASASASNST
Outline: as §1

Sequence of Glycogen synthase kinase-3 alpha (P49840 whole entry): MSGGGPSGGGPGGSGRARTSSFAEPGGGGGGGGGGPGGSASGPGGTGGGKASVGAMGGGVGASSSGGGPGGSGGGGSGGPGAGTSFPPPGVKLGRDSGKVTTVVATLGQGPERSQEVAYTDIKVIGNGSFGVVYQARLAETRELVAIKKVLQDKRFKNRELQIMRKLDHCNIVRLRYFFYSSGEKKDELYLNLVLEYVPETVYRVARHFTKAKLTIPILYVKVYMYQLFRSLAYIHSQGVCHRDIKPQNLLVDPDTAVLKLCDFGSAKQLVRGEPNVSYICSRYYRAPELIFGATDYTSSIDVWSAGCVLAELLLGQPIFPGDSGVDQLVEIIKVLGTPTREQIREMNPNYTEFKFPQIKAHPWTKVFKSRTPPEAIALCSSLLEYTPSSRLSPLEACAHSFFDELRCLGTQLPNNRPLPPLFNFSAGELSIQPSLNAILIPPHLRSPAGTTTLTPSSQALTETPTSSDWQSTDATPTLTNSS

| SMILES | IC50 [1] | IC50 [2] |
| --- | --- | --- |
| CC[C@]1(c2cccc(C(F)(F)F)c2)C2=CN=NC2NC2=C1C(=O)N[C@@H](c1ccccc1)C2 (stereo partly specified) [US20250313563, Compound 945362] | 1 to 5 µM | > 5 µM |
| CCC1(c2cccc(Br)c2)C2=CN=NC2NC2=C1C(=O)C(F)C(C)(C)C2 (stereo unspecified) [US20250313563, Compound 826764] | < 0.1 µM | 0.1 to 1 µM |
| CC[C@]1(c2cccc(-c3cc(C)nn3C)c2)C2=CN=NC2NC2=C1C(=O)CC(C)(C)C2 (stereo partly specified) [US20250313563, Compound 946000] | > 5 µM | > 5 µM |
| CCc1cccc(N(C)c2cccc(C3(CC)C4=CN=NC4NC4=C3C(=O)CC(C)(C)C4)c2)n1 (stereo unspecified) [US20250313563, Compound 944023] | < 0.1 µM | 0.1 to 1 µM |
| CC[C@@]1(c2cccc(-c3ccncc3F)c2)C2=C(CC(C)(C)NC2=O)NC2N=NC(C)=C21 (stereo partly specified) [US20250313563, Compound 947821] | < 0.1 µM | < 0.1 µM |
| CC[C@@]1(c2ccccc2)C2=CN=NC2NC2=C1C(=O)[C@H](C)C[C@H]2C (stereo partly specified) [US20250313563, Compound 865201] | < 0.1 µM | 0.1 to 1 µM |
| CC1(C)CC(=O)C2=C(C1)NC1=C(CN=N1)[C@]21CCOC1 [US20250313563, Compound 877313] | 0.1 to 1 µM | 0.1 to 1 µM |
| CC[C@]1(c2ccccc2)C2=CN=NC2NC2=C1C(=O)C[C@H](C)C2 (stereo partly specified) [US20250313563, Compound 789010] | 0.1 to 1 µM | 0.1 to 1 µM |
| CCC1(c2cccc(C(F)F)c2)C2=CN=NC2NC2=C1C(=O)NC(C)(C)C2 (stereo unspecified) [US20250313563, Compound 947864] | < 0.1 µM | 0.1 to 1 µM |
| CC1(C)CC(=O)C2=C(C1)NC1=C(CN=N1)C2(C)c1cc(Cl)cc(Cl)c1 (stereo unspecified) [US20250313563, Compound 789337] | 0.1 to 1 µM | 1 to 5 µM |
| CCC1(c2cccc(OC(C)C)c2)C2=CN=NC2NC2=C1C(=O)CC(C)(C)C2 (stereo unspecified) [US20250313563, Compound 801448] | < 0.1 µM | 0.1 to 1 µM |
| CC[C@]1(c2cccc(C(F)(F)F)c2)C2=CN=NC2NC2=C1C(=O)NC(C)(C)C2 (stereo partly specified) [US20250313563, Compound 913004] | > 5 µM | > 5 µM |
| CC[C@@]1(c2cccc(-c3ccnc(C)c3)c2)C2=CN=NC2NC2=C1C(=O)NC(C)(C)C2 (stereo partly specified) [US20250313563, Compound 927326] | 0.1 to 1 µM | > 5 µM |
| CC[C@@]1(c2ccccc2)C2=CN=NC2NC2=C1C(=O)C[C@H](c1ccccc1)C2 (stereo partly specified) [US20250313563, Compound 791264] | 0.1 to 1 µM | > 5 µM |
| CC1(C)CC(=O)C2=C(C1)NC1=C(CN=N1)C21CCN(S(=O)(=O)c2cccc(Cl)c2F)CC1 [US20250313563, Compound 948118] | < 0.1 µM | < 0.1 µM and 0.1 to 1 µM |
| CC1(C)CC(=O)C2=C(C1)NC1=C(CN=N1)[C@]21CCO[C@H](C(C)(C)C)C1 [US20250313563, Compound 912112] | 0.1 to 1 µM | 0.1 to 1 µM |
| CCC1(c2cccc(-c3ccnc(C)c3)c2)C2=CN=NC2NC2=C1C(=O)N(C)C(C)(C)C2 (stereo unspecified) [US20250313563, Compound 948302] | < 0.1 µM | 0.1 to 1 µM |
| CC[C@@]1(c2cccc(-c3ccnc4cnccc34)c2)C2=CN=NC2NC2=C1C(=O)NC(C)(C)C2 (stereo partly specified) [US20250313563, Compound 949110] | 1 to 5 µM | > 5 µM |
| CC[C@]1(c2cccc(S(C)(=O)=O)c2)C2=CN=NC2NC2=C1C(=O)NC(C)(C)C2 (stereo partly specified) [US20250313563, Compound 945621] | 1 to 5 µM | > 5 µM |
| CC[C@@]1(c2cccc(N(C)c3ncccn3)c2)C2=C(CC(C)(C)NC2=O)NC2N=NC(Cl)=C21 (stereo partly specified) [US20250313563, Compound 951618] | 0.1 to 1 µM | 1 to 5 µM |
| O=C1C[C@@H](C(F)(F)F)CC2=C1C1(CCOCC1)C1=C(N=NC1)N2 [US20250313563, Compound 901478] | 0.1 to 1 µM | 0.1 to 1 µM |
| CC1(C)CC(=O)C2=C(C1)NC1=C(CN=N1)C21CCN(S(=O)(=O)c2cnn(CCF)c2)CC1 [US20250313563, Compound 947903] | < 0.1 µM | < 0.1 µM |
| CCC1(c2cccc(-c3ccncc3F)c2)C2=C(CC(C)(C)NC2=O)NC2N=NC(C(F)F)=C21 (stereo unspecified) [US20250313563, Compound 950320] | < 0.1 µM | < 0.1 µM |
| COc1ccccc1S(=O)(=O)N1CCC2(CC1)C1=C(N=NC1)NC1=C2C(=O)CC(C)(C)C1 [US20250313563, Compound 893310] | < 0.1 µM | < 0.1 µM and 0.1 to 1 µM |
| CCC1(c2cccc(-c3ccncc3O)c2)C2=C(CC(C)(C)CC2=O)NC2N=NC(C)=C21 (stereo unspecified) [US20250313563, Compound 944024] | < 0.1 µM | < 0.1 µM |
| CCC1(c2cccc(C(F)F)c2)C2=C(CC(C)(C)NC2=O)NC2N=NC(C(F)(F)F)=C21 (stereo unspecified) [US20250313563, Compound 948305] | < 0.1 µM | < 0.1 µM |
| CCC1(c2cccc(-c3ccncc3F)c2)C2=C(CC(C)(C)NC2=O)NC2N=NC(Cl)=C21 (stereo unspecified) [US20250313563, Compound 949324] | < 0.1 µM and 0.1 to 1 µM | < 0.1 µM and 1 to 5 µM |

| SMILES | IC50 [1] | IC50 [2] |
| --- | --- | --- |
| CCc1cc(N(C)c2cccc(C3(CC)C4=CN=NC4NC4=C3C(=O)CC(C)(C)C4)c2)ccn1 (stereo unspecified) [US20250313563, Compound 917147] | < 0.1 µM | 0.1 to 1 µM |
| CCC1(c2cccc(-c3cnn(C)c3)c2)C2=C(CC(C)(C)CC2=O)NC2N=NC(C)=C21 (stereo unspecified) [US20250313563, Compound 884000] | < 0.1 µM | 0.1 to 1 µM |
| CC(C)(C)CC1=C2C(N=N1)NC1=C(C(=O)CC(C)(C)C1)[C@]21CCCc2ccccc21 (stereo partly specified) [US20250313563, Compound 811595] | 0.1 to 1 µM | < 0.1 µM |
| CC1(C)CC(=O)C2=C(C1)NC1=C(CN=N1)C21COC2(CN(C(=O)C3(F)CCCC3)C2)C1 (stereo unspecified) [US20250313563, Compound 947277] | < 0.1 µM | < 0.1 µM |
| CC[C@@]1(c2cc(-c3ccncc3)ccc2F)C2=CN=NC2NC2=C1C(=O)CC(C)(C)C2 (stereo partly specified) [US20250313563, Compound 893324] | 1 to 5 µM | > 5 µM |
| CCC1(c2cccc(Oc3cncnc3)c2)C2=CN=NC2NC2=C1C(=O)CC(C)(C)C2 (stereo unspecified) [US20250313563, Compound 917212] | < 0.1 µM | 0.1 to 1 µM |
| CC[C@@]1(c2cccc(C(F)(F)F)c2)C2=CN=NC2NC2=C1C(=O)N[C@@H](c1ccccc1)C2 (stereo partly specified) [US20250313563, Compound 945364] | > 5 µM | > 5 µM |
| CC1(C)CC(=O)C2=C(C1)NC1=C(CN=N1)C21COC2(CN(C(=O)C3(C)CC(F)C3)C2)C1 (stereo unspecified) [US20250313563, Compound 947271] | < 0.1 µM | 0.1 to 1 µM |
| CC[C@]1(c2cccc(C(F)(F)F)c2)C2=C(N=NC2)NC2=C1C(=O)NC2(C)C [US20250313563, Compound 913451] | < 0.1 µM | 0.1 to 1 µM |
| CC1(C)CC(=O)C2=C(C1)NC1=C(CN=N1)C21Cc2ccccc21 (stereo unspecified) [US20250313563, Compound 917226] | 0.1 to 1 µM | 0.1 to 1 µM |
| CC[C@]1(c2cccc(-c3ccnc(C)c3)c2)C2=C(CC(C)(C)NC2=O)NC2N=NC(Cl)=C21 (stereo partly specified) [US20250313563, Compound 949421] | 0.1 to 1 µM | > 5 µM |
| CC1(C)CC(=O)C2=C(C1)NC1=C(CN=N1)[C@]21CCN(S(C)(=O)=O)C1 [US20250313563, Compound 942432] | < 0.1 µM | < 0.1 µM |
| CC[C@@]1(c2cccc(-c3ccnc(C)c3)c2)C2=CN=NC2NC2=C1C(=O)C[C@H](C)C2 (stereo partly specified) [US20250313563, Compound 932638] | > 5 µM | > 5 µM |
| Cc1cccc2c1CCC21C2=C(N=NC2)NC2=C1C(=O)CC(C)(C)C2 (stereo unspecified) [US20250313563, Compound 806603] | < 0.1 µM | 0.1 to 1 µM |
| CCC1(c2cccc(N3CCCCCC3)c2)C2=CN=NC2NC2=C1C(=O)CC(C)(C)C2 (stereo unspecified) [US20250313563, Compound 885088] | 0.1 to 1 µM | 0.1 to 1 µM |
| CC[C@@H]1C[C@]2(CCO1)C1=C(N=NC1)NC1=C2C(=O)CC(C)(C)C1 [US20250313563, Compound 924715] | < 0.1 µM | 0.1 to 1 µM |
| CCC1(c2cccc(-c3cc(OC)ncn3)c2)C2=CN=NC2NC2=C1C(=O)CC(C)(C)C2 (stereo unspecified) [US20250313563, Compound 948093] | < 0.1 µM | 0.1 to 1 µM |
| CC[C@]1(c2cccc(-c3cnn4c3CC(C)(C)CC4)c2)C2=CN=NC2NC2=C1C(=O)NC(C)(C)C2 (stereo partly specified) [US20250313563, Compound 949265] | 1 to 5 µM | > 5 µM |
| CC[C@@]1(c2cccc(-c3c(F)cncc3OC)c2)C2=CN=NC2NC2=C1C(=O)CC(C)(C)C2 (stereo partly specified) [US20250313563, Compound 947512] | < 0.1 µM | 0.1 to 1 µM |
| CC[C@@]1(c2cccc(CN(C)c3ccc(F)nc3)c2)C2=CN=NC2NC2=C1C(=O)CC(C)(C)C2 (stereo partly specified) [US20250313563, Compound 932667] | > 5 µM | > 5 µM |
| CC[C@@]1(c2cccc(C3CC3)c2)C2=CN=NC2NC2=C1C(=O)NC(C)(C)C2 (stereo partly specified) [US20250313563, Compound 950817] | > 5 µM | > 5 µM |
| CC[C@]1(c2cccc([C@@H]3CCOC(C)(C)C3)c2)C2=CN=NC2NC2=C1C(=O)CC(C)(C)C2 (stereo partly specified) [US20250313563, Compound 912089] | 0.1 to 1 µM | 0.1 to 1 µM |
| CC[C@]1(c2cccc(-c3cc(C)nn3-c3ccccc3)c2)C2=CN=NC2NC2=C1C(=O)NC(C)(C)C2 (stereo partly specified) [US20250313563, Compound 951845] | 0.1 to 1 µM | 0.1 to 1 µM |
| CCC1(c2cccc(-c3cncn3C)c2)C2=C(CC(C)(C)NC2=O)NC2N=NC(C(F)(F)F)=C21 (stereo unspecified) [US20250313563, Compound 948180] | < 0.1 µM | < 0.1 µM |
| CC[C@]1(c2cccc(-c3ccnc(C)c3C)c2)C2=C(CC(C)(C)NC2=O)NC2N=NC(C(F)(F)F)=C21 (stereo partly specified) [US20250313563, Compound 948181] | 0.1 to 1 µM | 0.1 to 1 µM |
| CC1(C)CC(=O)C2=C(C1)NC1N=NC=C1C21CCCN(CC(F)F)CC1 (stereo unspecified) [US20250313563, Compound 889574] | 0.1 to 1 µM | 0.1 to 1 µM |
